# Source: patent US6660910B1, “Selection marker” (Syngenta Mogen B.V., priority 1997, dated 2003)
# Assays:
# Assay type in all cases: cell-based
# [1] = system: regenerable embryogenic suspension of Grand nain; assay: Kill curves in banana (Musa); details: for % Live cells as assessed by FDA: 21 days; for % Callus Growth: approximate visual estimate
# Procedure: To test the potential of cyanamide as a selection agent for transformation in banana two kill curves were set up with a regenerable embryogenic suspension of Grand nain 6 day old embryogenic suspension (Ed6b) cultures, subbed routinely in M2 2,4D liquid, containing 4.32 g/l MS salts, 45 g/l sucrose, standard 1×concn. MS vitamins, 100mg/l glutamine, 100 mg/l myo-inositol, 100 mg/l biotin, 100mg/l malt extract at pH 5.3 and added after autoclaving 1.2 mg/l 2,4-D and 0.8 mg/l picloram.
# Cultures were sieved (>250μ, <710μ) and aliquots of approx 50 μl sieved culture in 300μl volume of liquid were pipetted onto two kill curve media as detailed below (3 reps per plate). Culture growth and survival were monitored over the following 3 weeks and cell survival assessed after 21 days via FDA staining.
# Kill Curve Medium A : M2/MS/1.0 2,4-D (as M2/MS/2,4-D except only 1.0 mg/l 2,4-D, no picloram and +2.25 g/l gelrite): this medium promotes the rapid division and growth of embryogenic callus, but not embryos. Kill Curve Medium B : M2/SH/0.5Pic, 0.5 2,4-D (as M2/MS/2,4-D except only 0.5 mg/l 2,4-D and 0.5 mg/l picloram, SH salts (4.32 g/1) instead of MS, +2.25 g/l gelrite): This medium promotes the early development of embryos which can be matured and germinated by transfer to alternative media.
# Cyanamide was added to both media types, after autoclaving, to concentrations of 0,20,30,50,75,100,150 mg/l.
# [2] = system: BMS cells; assay: Maize killing curve; details: for Observations (light microscope) / % dead cells (light microscope): Day 15; for % dead cells (light microscope): clumps of cells
# Procedure: Stock solutions of cyanamide were prepared in water at 10 and 100 mg/ml and filter sterilised. Aliquots were stored at −20° C. Media were prepared by adding MS medium (4.4 g), sucrose (20 g), 2,4-D (2.0 mg) and agar (8 g) to 1 litre of water. […] BMS liquid was prepared as above minus agar. BMS cells were added to media containing cyanamide in three ways:
# a. BMS cell suspension added to falcon tube and liquid removed. Then the BMS cells were arranged on the surface of the agar in clumps of approximately 5 mm in diameter, 5 clumps per plate, 3 plates per concentration, while on the base of each petri dish the outline of each clump was marked;
# b. Approximately 0.5 ml pack cell volume plus 1.5 ml BMS liquid added to surface of agar and the cells were spread finely over surface of agar. Three plates per treatment were set up.
# c. Approximately 0.5 ml pack cell volume plus 1.5 ml BMS liquid were added to filter paper overlying agar. Cells were spread evenly over surface of filter. One plate per treatment was set up.
# The plates were sealed with micropore tape and incubated at 25° C. in the dark. […]
# Samples were taken from the clumps of cells on all levels of cyanamide for observation under a light microscope. With increasing levels of cyanamide there were increasing numbers of dead cells where the cell contents had shrunk away from the cell wall, and an increase in the number of dark bodied starch grains. Cells were observed resuspended in water and with FDA stain under UV light.
# [3] = system: non-morphogenic cell suspensions of Oryza sativa cv. IR 52; assay: Rice transformation by particle gun with cyanamide or hygromycin selection
# Procedure: Described below is the method used for transformation of non-morphogenic cell suspensions of Oryza sativa cv. IR 52 using a particle inflow gun (PIG) according to Finer et al. (Plant Cell Rep. 11, 323-328, 1992).
# A long-term, non-morphogenic suspension culture of Oryza sativa cv. IR 52 was subcultured in weekly intervals in liquid LS-4 (Linsmaier and Skoog, Physiol. Plant. 18, 100-127, 1962) medium and maintained on a rotary shaker (110 rpm) at 28° C. in the dark. (The contents of the LS-4 medium can be found in Table Z). 3-4 days after the last subculture 1.5 ml of this cell suspension (appro. 1.5×10^6 cells) were evenly spread on a filter paper (Whatman no 4) which was subsequently placed on solidified LS-4 medium and cultivated in the dark at 28° C. for 24 h and directly used for bombardment thereafter. For microprojectile bombardment a home-made particle inflow gun (PIG) according to Finer et al. (1992) was used. 300 μg tungsten particles coated with either pMOG 617 (35S-gus and 35S-hyg) or pMOG 873 (35S-cah) were loaded on a particle support. The particles were accelerated by a 2.5 bar helium pulse and had to pass a 500 μm metal stop screen, placed 2 cm under the particle support. The suspension cells were placed 15 cm under the particle support. The PIG was evacuated to 30 mbar before bombardment. After bombardment the cells were cultured at 28° C. in the dark for 3 days. Then the filters with the cells were transferred to solid LS-4 medium containing various concentrations of cyanamide or 50 mg/l hygromycinB (see table 6). The subculture was repeated every 9 days. Resistant microcalli that were visible after 4-6 weeks were transferred to fresh LS-4 medium containing the respective selective agent. From two experiments 7+41 calli transformed with pMOG617 were found resistant to hygromycin, while for the transformation with pMOG873 7 calli survived cyanamide 20 mg/l in the first experiment (results from the second experiment not yet available) and 0+4 calli remained viable on 40 mg/l cyanamide. […] The transgenic nature was confirmed by testing parts of the developing callus for the presence of the DNA in the callitransformed with pMOG873.
# [4] = Medium M2/MS/2,4-D, cyanamide 20 mg/l
# [5] = Medium M2/MS/2,4-D, cyanamide 30 mg/l
# [6] = Medium M2/MS/2,4-D, cyanamide 50 mg/l
# [7] = Medium M2/MS/2,4-D, cyanamide 75 mg/l
# [8] = Medium M2/MS/2,4-D, cyanamide 100 mg/l
# [9] = Medium M2/MS/2,4-D, cyanamide 150 mg/l
# [10] = Medium M2/SH/0.5Pic +0.5 2,4-D, cyanamide 20 mg/l
# [11] = Medium M2/SH/0.5Pic +0.5 2,4-D, cyanamide 30 mg/l
# [12] = Medium M2/SH/0.5Pic +0.5 2,4-D, cyanamide 50 mg/l
# [13] = Medium M2/SH/0.5Pic +0.5 2,4-D, cyanamide 75 mg/l
# [14] = Medium M2/SH/0.5Pic +0.5 2,4-D, cyanamide 150 mg/l
smiles,measurement,setting,value
N#CN [Cyanamide],Concentration up to which there is no significant visual browning of cultures and release of phenolics,[1],> 75 mg/L
same,inhibition at 20 µg/mL,"[1]; 20 mg/l, read-out: Inhibition of the growth of embryogenic callus",40 to 50%
same,% Live cells as assessed by FDA,[1]; [4],60%
same,% Callus Growth,[1]; [4],+30%
same,% Live cells as assessed by FDA,[1]; [5],50%
same,% Callus Growth,[1]; [5],+20%
same,% Live cells as assessed by FDA,[1]; [6],20%
same,% Callus Growth,[1]; [6],0%
same,% Live cells as assessed by FDA,[1]; [7],10%
same,% Callus Growth,[1]; [7],0%
same,% Live cells as assessed by FDA,[1]; [8],10%
same,% Callus Growth,[1]; [8],0%
same,% Live cells as assessed by FDA,[1]; [9],0%
same,% Callus Growth,[1]; [9],0%
same,Embryos Formed (average),[1]; [10],0
same,% Live cells as assessed by FDA,[1]; [10],50%
same,Embryos Formed (average),[1]; [11],0
same,% Live cells as assessed by FDA,[1]; [11],40%
same,Embryos Formed (average),[1]; [12],0
same,% Live cells as assessed by FDA,[1]; [12],30%
same,Embryos Formed (average),[1]; [13],0
same,% Live cells as assessed by FDA,[1]; [13],20%
same,Embryos Formed (average),"[1]; Medium M2/SH/0.5Pic +0.5 2,4-D, cyanamide 100 mg/l",0
same,Embryos Formed (average),[1]; [14],0
same,% Live cells as assessed by FDA,[1]; [14],0%
same,Embryogenesis,[1]; lowest concentration tested (20 mg/l),totally inhibited
same,Observations (light microscope),[2]; 10 mg/l,Signs of stress.
same,% dead cells (light microscope),[2]; 10 mg/l,Approx 5% dead.
same,Growth of BMS cells,"[2]; 10 mg/l, after 15 days",reduction in growth of BMS cells on 10 mg/l was still very clear
same,Observations (light microscope),[2]; 30 mg/l,Striking differences from control cells.
same,% dead cells (light microscope),[2]; 30 mg/l,Approx 15-20% dead.
same,Growth of BMS cells,"[2]; 50 mg/l plus, after 15 days",showed no signs of growth
same,Observations (light microscope),[2]; 50 mg/l,Increasing number of dead cells and accumulation of starch
same,% dead cells (light microscope),[2]; 50 mg/l,Approx 50% dead.
same,Observations (light microscope),[2]; 100 mg/l,Majority of cell dead.
same,% dead cells (light microscope),[2]; 100 mg/l,Approx 90% dead.
same,Observations (light microscope),[2]; 150 mg/l,Majority of cells dead.
same,% dead cells (light microscope),[2]; 150 mg/l,Approx 95-98% dead.
same,Colour of BMS cells,"[2]; all levels of cyanamide, after 8 days",no browning of cells was observed
same,Growth of BMS cells,"[2]; cells spread over surface of media, 10 mg/l, after 8 days",significant reduction in growth
same,Cell density of BMS cells,"[2]; cells spread over surface of media, 30 mg/l, after 8 days",slight increase in cell density
same,Growth of BMS cells,"[2]; clumps and cells spread over agar, 30 mg/l plus, after 15 days",notable reduction in growth
same,Growth of BMS cell clumps,"[2]; clumps on agar, 10 mg/l, after 8 days",had not outgrown their outline but the height of the clumps had increased
same,Cyanamide concentration with maximum effect on growth,"[2]; clumps on agar, after 8 days",50 mg/L
same,Growth of BMS cell clumps,"[2]; repeated experiment, 10 mg/l",slight reduction in growth
same,Colour of BMS cell clumps,"[2]; repeated experiment, above 50 mg/l",slight orange tinge
same,Growth of BMS cells,"[2]; repeated experiment, cells spread over agar or on filters, 10 mg/l",slight growth (approximately doubling of the number of original cells)
same,Growth of BMS cells,"[2]; repeated experiment, cells spread over agar or on filters, 20 mg/l and higher",limited of growth
same,Growth of BMS cell clumps,"[2]; repeated experiment, from 20 mg/l on",showed no outgrowing from their original outline
same,Callus formation,[3]; 50 mg/l cyanamide or higher,No calli were formed
same,Calli that remained viable,"[3]; pMOG873 (35S-cah), 40 mg/l cyanamide, two experiments",0+4
same,Calli that survived,"[3]; pMOG873 (35S-cah), cyanamide 20 mg/l, first experiment",7
same,Surviving calli positive in a PCR experiment on the cah-gene,"[3]; pMOG873, 40 mg/l cyanamide",One of the 4
